“Also recorded” adds a separate entry of the source.
Columns and labels:
[1] = tested on: HT22 (mouse hippocampal) cells; settings: J. Neurochem. 119:839-847 (2011); cited from earlier work
[2] = tested on: PC12 (rat adrenal medulla tumor) cells; settings: FEBS Lett. 580:6972-6976 (2006); cited from earlier work
[3] = tested on: human bone marrow-derived cells (HBM); type: cell-based
[4] = tested on: Adult Human Bone Marrow Cells; assay: CLQ treatment of adult human bone marrow cells, CTB-Alexa488 staining (Example 2); type: cell-based; settings: 50 uM CLQ, 48 h, CTB-Alexa488, FIG. 2; listed as CLQ
[5] = tested on: Parkinson's disease subjects; settings: cited from earlier work

Compound	GM1 levels [1]	accumulation [2]	up-regulation of GM1 expression vs control [3]	accumulation of GM1 vs control [4]	safety of long-term use ([5]; five-year study, J. Neurol. Sci. 292:45-51 (2010))	effect on symptoms ([5]; short-term treatment, Neurology 50:1630-1636 (1998))
CCN(CC)CCCC(C)Nc1ccnc2cc(Cl)ccc12 (stereo not drawn) [Chloroquine, chloroquine]	only moderately increased GM1 levels	induce accumulation	approximately 8 fold	significantly higher accumulation of GM1; also recorded: abundant and intense compared to control conditions	–	–
GM1	–	–	–	–	safe	significant symptom reduction
